Marks after values point to notes of the source that are not given here.
Columns and labels:
[1] = tested on: Human hepatic stellate cell line LX-2; assay: Calcium Influx of Human Hepatic Stellate Cells (LX-2); type: cell-based; settings: LX-2 cells, LPA-stimulated calcium influx
Description: Calcium Influx of Human Hepatic Stellate Cells (LX-2)
Human hepatic stellate cell line LX-2 is purchased from EMD Millpore. LX-2 cells are seeded at 20,000-40,000 cells per well in a 96-well poly-D-lysine coated plate one day before the assay. Prior to the assay, the cells are washed once with assay buffer (HBSS containing 20 mM HEPES and 0.2% BSA) and then incubated in 50 μl of assay buffer for 60 minutes. Then 50 μl of a calcium indicator dye (Fluo-4 NW, Molecular Probes) are added to each well and incubation is continued for 30 minutes at 37° C. and then 30 minutes at room temperature. 50 μl of test compounds in 4% DMSO are added to the cells and incubation is continued at room temperature for 40 minutes. Cells are stimulated by the addition of 50 μl of 128 nM LPA and intracellular calcium is measured using the FLIPR TETRA (Molecular Devices). IC50 values are determined using “Genedata Screener” analysis tool.

[2] = tested on: Male C57B1/6 mice; assay: Diet-Induced Liver Inflammation and Fibrosis; type: in vivo; settings: for Peri-sinusoidal Fibrosis Score: vehicle 1.37; for Inflammation Score: vehicle 2.7
Description: Diet-Induced Liver Inflammation and Fibrosis
Male C57B1/6 mice (7-8 weeks old) are given free access to food and water. Mice are fed with high fat, high sucrose and high cholesterol food for 196 days. Then animals will be administrated orally with vehicle or test compounds once daily for 77 days at a volume of 5 ml/kg. Body weight and food intake will be measured twice a week, after two weeks, BW and FI will be measured once a week. At the end of study, animals will be euthanized by CO2 suffocation. Liver samples of the animals are collected and fixed in 10% NBF. Liver samples are prepared after 20 to 24 hours of fixation in 10% NBF and prepared into FFPE blocks. Slide sections of FFPE blocks are processed with H&E and Masson's Trichrome staining. Histopathology interpretation and results will be provided by qualified pathologists. The data are plotted using Graphpad prism and statistical differences between groups determined.

[3] = tested on: Male C57BL/6J mice; assay: Mouse Intravenous LPA-Induced Histamine and Eicosanoids Release; type: in vivo; settings: 10 mg/kg orally 2 hours before intravenous LPA; plasma
Description: Mouse Intravenous LPA-Induced Histamine and Eicosanoids Release
A mouse intravenous LPA-induced histamine and eicosanoids release model is utilized to determine the in vivo potency of the compounds of the present invention. Male C57BL/6J mice weighing 20-25 grams are given free access to standard mouse chow and water. LPA is dissolved in 0.1% fatty acid-free bovine serum albumin to generate solution at 2 mg/mL. Test compounds are formulated in 0.5% methyl cellulose plus 0.25% Tween 80 to generate required concentrations one day before the experiment and stored in a refrigerator until use. Animals are dosed orally with test compounds at 10 ml/kg 2 hours before the intravenous LPA dosing (300 ug per mouse) with 30 gauge needles through tail vain. Two hours after LPA dosing the animals are euthanized by CO2 suffocate. Blood will be collected by cardiac puncture. Blood samples are kept on ice for more than 5 minutes and centrifuged at 4000 rpm for 10 minutes at 4° C. to generate supernatant plasma. The plasma histamine, methylimidazol acetic acid and eicosanoids levels are measured by LC/MS.

[4] = Rodent Pharmacokinetics - Mouse PK; type: in vivo, C57 mice; settings: C57, plasma
Description: (§1) The pharmacokinetics of compounds are determined in male Sprague-Dawley rats or C57 mice. The rats are administered a single 1 mg/kg intravenous (IV) and 10 mg/kg oral gavage (PO) dose. The vehicles are 20% Captisol w/v in 25 mM NaPO4 buffer, pH8 and 1% hydroxyethylcellulose/0.25% polysorbate 80 and 0.05% antifoam 1510-US in distilled water for the intravenous and oral dose, respectively. Blood samples are collected at predose (PO only), 0.08 (IV only), 0.25, 0.5, 1, 2, 4, 8, 12 and 24 h after initiation of compound administration. Blood samples are centrifuged to obtain plasma. The plasma samples are analyzed by LC-MS/MS to determine compound concentrations.

[5] = biological target: T1, LPAR1 (Homo sapiens (Human), UniProt Q92633); assay: LPAR1 Membrane Binding Assay; settings: membrane containing LPAR1, radio labeled ligand, SPA
Description: LPAR1 Membrane Binding Assay
The ability of a compound to inhibit binding of a ligand (1-(4′-(4-(((benzyloxy)carbonyl)amino)-3-methylisoxazol-5-yl)-[1,1′-biphenyl]-4-yl)cyclopropane-1-carboxylic acid) to LPAR1 is assessed via a membrane binding assay. Membrane containing LPAR1 was purchased from Cerep (Cat. No. 290312RB). Prior to the assay, membrane is thawed and homogenized for 15 seconds. 50 μl of test compounds and 50 μl of radio labeled ligand are added to the 96-well plates and then 50 of μl membrane (50-400 ug/ml) are added. Next, 50 μl of SPA PVT WGA beads are added (1-5 mg/ml) and the plates are sealed and incubated at room temperate for 5 minutes. Radio activity is measured by Beta Counter and IC50 values are determined using “Genedata Screener” analysis tool.
Target sequence in this assay (Q92633 whole entry, species assumed): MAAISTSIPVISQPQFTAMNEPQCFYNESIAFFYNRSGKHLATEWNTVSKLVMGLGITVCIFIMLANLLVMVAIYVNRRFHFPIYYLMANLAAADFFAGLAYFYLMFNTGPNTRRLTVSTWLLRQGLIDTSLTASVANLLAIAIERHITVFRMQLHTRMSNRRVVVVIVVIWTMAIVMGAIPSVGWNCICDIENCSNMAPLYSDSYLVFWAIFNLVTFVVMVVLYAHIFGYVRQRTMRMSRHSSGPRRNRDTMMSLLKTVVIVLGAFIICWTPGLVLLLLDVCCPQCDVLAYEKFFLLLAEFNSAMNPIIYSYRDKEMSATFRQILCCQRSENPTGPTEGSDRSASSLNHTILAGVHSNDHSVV

[6] = Rodent Pharmacokinetics - Rat PK; type: in vivo, male Sprague-Dawley rats; settings: male, Sprague-Dawley, plasma
Description: as §1

[7] = biological target: human LPAR3 (Homo sapiens (Human), UniProt Q9UBY5); assay: LPAR3 Calcium Flux Assay; type: cell-based; settings: U2OS cells overexpressing human LPAR3, LPA-stimulated calcium, FLIPR
Chain of human LPAR3 (Q9UBY5 whole entry): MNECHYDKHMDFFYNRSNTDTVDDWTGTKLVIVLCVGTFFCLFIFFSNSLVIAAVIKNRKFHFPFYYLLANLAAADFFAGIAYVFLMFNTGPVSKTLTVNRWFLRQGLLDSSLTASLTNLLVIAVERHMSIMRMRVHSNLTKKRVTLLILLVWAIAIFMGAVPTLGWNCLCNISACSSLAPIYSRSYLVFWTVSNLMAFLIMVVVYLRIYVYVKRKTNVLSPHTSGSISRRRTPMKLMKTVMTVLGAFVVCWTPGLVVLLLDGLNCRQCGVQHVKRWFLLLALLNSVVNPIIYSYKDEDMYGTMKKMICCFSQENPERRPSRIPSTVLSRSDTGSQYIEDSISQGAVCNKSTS
Description: LPAR3 Calcium Flux Assays
(§2) A cDNA encoding the human LPAR3 receptor is synthesized and cloned into pDNA3 expression plasmid. The plasmid is transfected in U2OS cells using Lipofectamine 2000 (Invitrogen Corp., USA). Clones stably expressing human LPAR3 are selected using neomycin and identified as cells that show Ca-influx in response to LPA.
U2OS cells overexpressing human LPAR3 are seeded at 20,000-40,000 cells per well in a 96-well poly-D-lysine coated plate one day before the assay. Prior to the assay, the cells are washed once with assay buffer (HBSS containing 20 mM HEPES and 0.2% BSA) and then incubated in 50 μl of assay buffer for 60 minutes. Then 50 μl of a calcium indicator dye (Fluo-4 NW, Molecular Probes) are added to each well and incubation is continued for 30 minutes at 37° C. and then 30 minutes at room temperature. 50 μl of test compounds in 4% DMSO are added to the cells and incubation continued at room temperature for 40 minutes. Cells are stimulated by the addition of 50 μl of 128 nM LPA and intracellular calcium is measured using the FLIPR TETRA (Molecular Devices). IC50 values are determined using “Genedata Screener” analysis tool.

[8] = biological target: T1, LPAR1; assay: LPAR1 Calcium Flux Assay; type: cell-based; settings: U937 cells overexpressing human LPAR1, LPA-stimulated calcium, FLIPR
Description: LPAR1 Calcium Flux Assays
as §2, with “LPAR1” for “LPAR3”, “U937” for “U2OS”, “puromycin” for “neomycin”
Target sequence in this assay (Q92633 whole entry): as the sequence (Q92633 whole entry, species assumed) above
U937 cells overexpressing human LPAR1 are seeded at 100,000 cells per well in a 96-well fibronectin (10 ug/ml) coated plate in 60 μl of assay buffer (HBSS containing 20 mM HEPES and 0.2% BSA) and then incubated for 60 minutes. Then 50 μl of a calcium indicator dye (Fluo-4 NW, Molecular Probes) are added to each well and incubation continued for 30 minutes at 37° C. and then 30 minutes at room temperature. 50 μl of test compounds in 4% DMSO are added to the cells and incubation continued at room temperature for 40 minutes. Cells are the stimulated by the addition of 50 μl of 128 nM LPA and intracellular calcium is measured using the FLIPR TETRA (Molecular Devices). IC50 values are determined using “Genedata Screener” analysis tool.

[9] = 10 mg/kg orally once daily for 77 days
[10] = 30 mg/kg orally once daily for 77 days

IC50 [1]: 8.88 nM
AUC ([4]; 10 mg/kg, PO): 38.4 µM·h
clearance ([4]; intravenous): 3.5 mL/min/kg
Vd ([4]; intravenous, read-out: Vdss): 0.953 L/kg
bioavailability ([4]; oral, 10 mg/kg): 40.8%
Ki [5]: 15.3 nM
AUC ([6]; 10 mg/kg, PO): 80.1 µM·h
clearance ([6]; intravenous, 1 mg/kg): 4.23 mL/min/kg
Vd ([6]; intravenous, 1 mg/kg, read-out: Vdss): 0.799 L/kg
bioavailability ([6]; oral, 10 mg/kg): 93.6%
IC50 [7]: 1980 nM
IC50 [8]: 20.6 nM
SMILES: CC(C)c1cncc(Nc2c(-c3ccc(-c4ccc(C5(C(=O)O)CC5)cc4)cn3)cnn2C)n1 [Example 27, 1-[4-[6-[5-[(6-isopropylpyrazin-2-yl)amino]-1-methyl-pyrazol-4-yl]-3-pyridyl]phenyl]cyclopropanecarboxylic Acid]
Peri-sinusoidal Fibrosis Score [2, 9]: 1.30
Inflammation Score [2, 9]: 2.1*
Peri-sinusoidal Fibrosis Score [2, 10]: 1.07^$
Inflammation Score [2, 10]: 2.3^#
% of inhibition, histamine [3]: 89.5 ± 1.6%
% of inhibition, methylimidazoleacetic acid [3]: 100.8 ± 3.4%
